Reference: patent US6608082B1, “Treatment of erectile dysfunction using isoquinoline compound melanocortin receptor ligands” (Lion Bioscience AG, priority 1998, dated 2003)
Where two headings read alike, the source gives them in different places. One block for each molecule: values may come before it.

What was measured:
MCR-4 = target: T1, MCR-4 (Homo sapiens, UniProt P32245); assay: Melanocortin receptor binding assay, competition with 125I-HP 467, HEK 293 cells expressing hMCR-4; settings: for IC50: read-out: MC-4 IC50
T1 construct: expressed in transfected cells; host or cells: HEK 293
Method in brief: (§1)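 Test compounds compete on intact HEK 293 cells carrying hMCR-1 (2×10^4 per tube) or hMCR-4 (4×10^3 per tube), suspended in PBS, 10% calf serum, 1 mM CaCl2.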

MCR-1 = target: T2, MCR-1 (Homo sapiens, UniProt Q01726); assay: Melanocortin receptor binding assay, competition with 125I-HP 467, HEK 293 cells expressing hMCR-1; settings: for IC50: read-out: MC-1 IC50; for % Disp. MC-1 10 μM: displacement of 125I-HP 467 at 10 μM isoquinoline compound
T2 construct: expressed in transfected cells; host or cells: HEK 293
Method in brief: as §1

[1] = TRG 2406 and TRG 2407 libraries, inhibition of binding of 125I-HP 467
[2] = TRG 2414 library, inhibition of binding of 125I-HP 467, HEK 293 cells expressing MCR-4
[3] = TRG 2414 library, inhibition of binding of 125I-HP 467, HEK 293 cells expressing MCR-1
[4] = inhibition of binding of 125I-HP 467, HEK 293 cells expressing MCR-4, TRG 2414 library
[5] = inhibition of binding of 125I-HP 467, HEK 293 cells expressing MCR-1, TRG 2414 library
[6] = TRG 2408 and TRG 2409 libraries, inhibition of 125I-HP 467 binding
[7] = competition with 125I-HP 467, HEK 293 cells expressing MCR-4
[8] = competition with 125I-HP 467, HEK 293 cells expressing MCR-1
[9] = inhibition of binding of 125I-HP 467, HEK 293 cells expressing MCR-4
[10] = inhibition of binding of 125I-HP 467, HEK 293 cells expressing MCR-1

T1 sequence (P32245 whole entry): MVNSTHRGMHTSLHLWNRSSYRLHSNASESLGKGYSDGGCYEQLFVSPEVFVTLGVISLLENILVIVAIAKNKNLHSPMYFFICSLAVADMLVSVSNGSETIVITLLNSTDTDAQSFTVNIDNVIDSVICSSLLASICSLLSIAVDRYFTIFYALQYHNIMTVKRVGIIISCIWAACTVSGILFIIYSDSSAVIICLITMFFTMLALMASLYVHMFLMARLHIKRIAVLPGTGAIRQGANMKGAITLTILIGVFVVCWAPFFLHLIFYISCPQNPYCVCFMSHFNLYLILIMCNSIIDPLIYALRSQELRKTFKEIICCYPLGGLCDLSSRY
T2 sequence (Q01726 whole entry): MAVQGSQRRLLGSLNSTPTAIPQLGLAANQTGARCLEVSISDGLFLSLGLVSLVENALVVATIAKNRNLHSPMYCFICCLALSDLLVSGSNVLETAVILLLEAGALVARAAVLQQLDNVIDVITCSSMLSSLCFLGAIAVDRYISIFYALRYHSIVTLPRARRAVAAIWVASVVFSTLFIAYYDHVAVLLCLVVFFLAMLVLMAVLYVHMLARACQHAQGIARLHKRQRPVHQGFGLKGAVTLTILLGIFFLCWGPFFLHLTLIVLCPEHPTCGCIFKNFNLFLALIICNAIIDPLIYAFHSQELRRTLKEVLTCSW

SMILES: CNC(CN)CCCCN1Cc2ccccc2C(CNCc2ccccc2O)C1c1cccc(Oc2ccccc2)c1 (stereo not shown) [TRG 2406-10]
IC50 (MCR-4; [1]): 0.26 µM
IC50 (MCR-1; [1]): 0.85 µM

SMILES: NCC(CCCCN1Cc2ccccc2C(CNCCc2cccc(Cl)c2)C1c1ccccc1Br)NCCc1ccccc1 (stereo not shown) [Cmpd 214]
IC50 (MCR-4; [2]): 4.76 µM
IC50 (MCR-1; [3]): 7.38 µM

SMILES: NCC(CCCCN1Cc2ccccc2C(CNCc2ccccc2)C1c1cc(C(F)(F)F)cc(C(F)(F)F)c1)NCCc1ccccc1 (stereo not shown) [TRG 2414-70]
IC50 (MCR-4; [4]): 9.29 µM
IC50 (MCR-1; [5]): 18.3 µM

SMILES: CNC(CN)CCCCN1Cc2ccccc2C(CN(C)c2ccccc2)C1c1ccc(Cl)cc1Cl (stereo not shown) [TRG 2407-2]
IC50 (MCR-4; [1]): 6.26 µM
IC50 (MCR-1; [1]): 5.75 µM

SMILES: CCCOc1ccc(C2C(CNCc3ccccc3O)c3ccccc3CN2CCN)cc1 (stereo not shown) [TRG 2406-14]
IC50 (MCR-4; [1]): 5.36 µM
IC50 (MCR-1; [1]): 8.31 µM

SMILES: CCOc1ccccc1CNCC1c2ccccc2CN(CCCCC(CN)NCCc2ccccc2)C1c1cccc(Oc2ccccc2)c1 (stereo not shown) [TRG 2414-86]
IC50 (MCR-4; [4]): 16.2 µM
IC50 (MCR-1; [5]): 11.8 µM

SMILES: NCC(N)CCCCN1Cc2ccccc2C(CNC2CCCCC2)C1c1ccccc1Br (stereo not shown) [Cmpd 237]
IC50 (MCR-4; [2]): 3.61 µM
IC50 (MCR-1; [3]): 5.87 µM

SMILES: CCNc1ccc(C2C(CN)c3ccccc3CN2CCCC(CN)NCc2ccc(OC)cc2)cc1 (stereo not shown) [TRG 2411-184]
IC50 (MCR-4; [9]): 1.61 µM
IC50 (MCR-1; [10]): 0.09 µM

SMILES: CNC(CN)CCCCN1Cc2ccccc2C(CNCc2ccccc2C(F)(F)F)C1c1ccc(Cl)cc1Cl (stereo not shown) [TRG 2407-13]
IC50 (MCR-4; [1]): 9.25 µM
IC50 (MCR-1; [1]): 8.5 µM

SMILES: CCNc1ccc(C2C(CN(C)c3ccccc3)c3ccccc3CN2CCCCC(CN)NC)cc1 (stereo not shown) [TRG 2407-42]
IC50 (MCR-4; [1]): 7.9 µM
IC50 (MCR-1; [1]): 4.23 µM

SMILES: CCOc1ccccc1CNCC1c2ccccc2CN(CCCCC(N)CN)C1c1cccc(Oc2ccccc2)c1 (mixture of isomers) [TRG 2414-85]
IC50 (MCR-4; [4]): 2.17 µM
IC50 (MCR-1; [5]): 2.43 µM

SMILES: CC(C)Cc1ccc(C(C)CNC(CN)CCCCN2Cc3ccccc3C(CNC3CCCCC3)C2c2cccc(Oc3ccccc3)c2)cc1 (stereo not shown) [TRG 2414-120]
IC50 (MCR-4; [4]): 58.8 µM
IC50 (MCR-1; [5]): 25 µM

SMILES: COc1ccc(CCNCC2c3ccccc3CN(CCCCC(N)CN)C2c2ccc(Oc3ccccc3)cc2)cc1 (stereo not shown) [Cmpd 274]
MC-4 IC50 (MCR-4; [2]): no fit
MC-1 IC50 (MCR-1; [3]): no fit

SMILES: CCOc1ccccc1CNCC1c2ccccc2CN(CCCCC(CN)NCc2ccccc2)C1c1ccccc1Br (stereo not shown) [Cmpd 207]
IC50 (MCR-4; [2]): 6.43 µM
IC50 (MCR-1; [3]): 7.67 µM

SMILES: COc1ccccc1CCNCC1c2ccccc2CN(CCCCC(CN)NCC(C)c2ccc(CC(C)C)cc2)C1c1ccccc1Br (stereo not shown) [Cmpd 212]
IC50 (MCR-4; [2]): 16.6 µM
IC50 (MCR-1; [3]): 18.3 µM

SMILES: COc1cccc(CNCC2c3ccccc3CN(CCCCC(N)CN)C2c2cc(C(F)(F)F)cc(C(F)(F)F)c2)c1 (stereo not shown) [TRG 2414-57]
IC50 (MCR-4; [4]): 1.55 µM
IC50 (MCR-1; [5]): 7.7 µM

SMILES: NCC(CCCCN1Cc2ccccc2C(CNC2CCCCCC2)C1c1ccccc1Br)NCc1ccccc1 (stereo not shown) [Cmpd 235]
IC50 (MCR-4; [2]): 5.35 µM
IC50 (MCR-1; [3]): 2.86 µM

Further lines, results first:

IC50 (MCR-4; [6]): 20.5 µM
IC50 (MCR-1; [6]): 0.82 µM
SMILES: NCCNC(CN)CCCCN1Cc2ccccc2C(CNC2CCCCC2)C1c1ccc(-c2ccccc2)cc1 (stereo not shown) [TRG 2408-23]

IC50 (MCR-4; [7]): 1.03 µM
IC50 (MCR-1; [8]): 0.11 µM
SMILES: CCCCNc1ccc(C2C(CNC3CCCCC3)c3ccccc3CN2CCCCC(CN)NCc2ccc(OC)cc2)cc1 (stereo not shown) [TRG 2411-95]

IC50 (MCR-4; [6]): 27.1 µM
IC50 (MCR-1; [6]): 3.89 µM
SMILES: CCNc1ccc(C2C(CNC3CCCCC3)c3ccccc3CN2CCC(CN)NCCNC)cc1 (stereo not shown) [TRG 2408-94]

IC50 (MCR-4; [7]): 1.17 µM
IC50 (MCR-1; [8]): 0.25 µM
SMILES: CCCCNc1ccc(C2C(CNC3CCCCC3)c3ccccc3CN2CCCCC(CN)NCCc2ccccc2)cc1 (stereo not shown) [TRG 2411-90]

IC50 (MCR-4; [6]): 15.4 µM
IC50 (MCR-1; [6]): 2.5 µM
SMILES: CNCCNC(CN)CCCN1Cc2ccccc2C(CNC2CCCCC2)C1c1ccc(-c2ccccc2)cc1 (stereo not shown) [TRG 2408-84]

IC50 (MCR-4; [6]): 28.1 µM
IC50 (MCR-1; [6]): 9.94 µM
SMILES: CCNc1ccc(C2C(CNC3CCCCC3)c3ccccc3CN2CCC(N)CN)cc1 (stereo not shown) [TRG 2408-91]

IC50 (MCR-4; TRG 2405 section, inhibition of binding of 125I-HP 467, HEK 293 cells expressing MCR-4): 12.8 µM
IC50 (MCR-1; TRG 2405 section, inhibition of binding of 125I-HP 467, HEK 293 cells expressing MCR-1): 5.34 µM
% Disp. MC-1 10 μM (MCR-1; first of duplicate): 52.4%
% Disp. MC-1 10 μM (MCR-1; second of duplicate): 58.4%
SMILES: CNC(CN)CN1Cc2ccccc2C(CNC2CCCCC2)C1c1ccc(F)c(Br)c1 (stereo not shown) [TRG 2405-126]

IC50 (MCR-4; [9]): 1.33 µM
IC50 (MCR-1; [10]): 0.35 µM
SMILES: CCCCNc1ccc(C2C(CNC3CCCCC3)c3ccccc3CN2CCCC(CN)NCCc2ccc(OC)cc2)cc1 (stereo not shown) [TRG 2411-209]
